Data on 11 compounds can be found in ChEMBL document CHEMBL1201862, “PubChem BioAssay data set” (2004).

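Method: 48-hour compound exposure of cells in 96-well plates, five concentrations, linear interpolation of endpoints. At the GI50, growth is halved.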 Active and inactive are the calls of the source. Rule as the data show it: active = GI50 up to about 1.1 µM and inactive = higher.

Common to all, as to assay: NCI tumour cell line growth inhibition, 48 h
Assay [1] has as its system SN12C.
Assay [2] concerns BT-549.
The test system of assay [3] is MCF7.
The subject of assay [4] is SF-539.
Assay [5] relates to TK-10.
Assay [6] relates to IGROV-1.
The subject of assay [7] is MDA-N.
Assay [8] has as its system SK-OV-3.
For assay [9], the system named is RPMI-8226.
In assay [10] the test system is NCI-H226.
The test system of assay [11] is OVCAR-3.
For assay [12], the system named is HL-60.
Assay [13] deals with OVCAR-8.
Assay [14] relates to LOX IMVI.
The subject of assay [15] is UACC-257.
Assay [16] deals with HOP-62.
Assay [17] deals with RXF 393.
The test system of assay [18] is HT-29.
Assay [19] concerns SK-MEL-28.

On to `NCCc1ccc2c(c1)C(=O)c1c(O)ccc(O)c1C2=O`, for which the GI50 in assay [1] is 2.51 µM (inactive); in assay [2], 6.73 µM (inactive); in [3], 3.51 µM (inactive); in assay [4] it was 3.02 µM (inactive); in [5], > 100 µM (inactive); in assay [6], 3.4 µM (inactive). Further, the GI50 was 2.82 µM (inactive) in [7]; 5.86 µM (inactive) in [8]; 4.14 µM (inactive) in assay [9]; 17 µM (inactive) in assay [10]; 1.69 µM (inactive) in assay [11]; 2.17 µM (inactive) in assay [12]. For the same compound, the GI50 in assay [13] is 2.04 µM (inactive); in [14], 4.11 µM (inactive); in assay [15] it was 15.2 µM (inactive); in [16], 3.6 µM (inactive); in assay [17], > 21.6 µM (inactive).
In the case of `CC1CC[C@@]2(OC1)OC1C[C@H]3[C@@H]4CC[C@H]5CC(OC6OC(CO)C(OC7OC(CO)C(O)C(O)C7OC7OC(CO)C(O)C(O)C7O)C(O)C6O)CCC5(C)[C@H]4CCC3(C)C1[C@@H]2C` (some centres not stated), the GI50 is 2.01 µM (inactive) in [1]; 1.38 µM (inactive) in assay [2]; 1.01 µM (active) in [3]; 1.22 µM (inactive) in assay [4]; 1.61 µM (inactive) in [5]; 0.964 µM (active) in assay [18]. Moreover, the GI50 in assay [6] is 1.04 µM (active); in assay [7] it was 2.86 µM (inactive); in assay [8], 1.57 µM (inactive); in assay [9], 1.88 µM (inactive); in [10], 1.34 µM (inactive); in [11], 1.8 µM (inactive). The GI50 in assay [12] is 4.97 µM (inactive); in assay [13], 6.24 µM (inactive); in assay [14], 1.76 µM (inactive); in assay [15] it was 4.31 µM (inactive); in assay [19] it was 2.12 µM (inactive); in assay [16] it was 1.44 µM (inactive). Moreover, the GI50 in [17] was 1.05 µM (active).
`COc1ccc(C2C(C#N)=C(S)N(C3OC(CO)C(O)C(O)C3O)C(C)=C2C(C)=O)cc1` (configuration not stated): the GI50 was > 100 µM (inactive) in assay [1]; 92 µM (inactive) in [2]; > 100 µM (inactive) in assay [3]; > 100 µM (inactive) in assay [4]; > 100 µM (inactive) in assay [5]; > 100 µM (inactive) in [18]. For the same compound, the GI50 in assay [6] is > 100 µM (inactive); in [7], 72.3 µM (inactive); in assay [9] it was 62.1 µM (inactive); in assay [10], > 100 µM (inactive); in [11], 47.3 µM (inactive); in assay [12], 58.7 µM (inactive). Also, the GI50 in assay [13] was > 100 µM (inactive); in assay [14], > 100 µM (inactive); in [15], > 100 µM (inactive); in assay [19] it was > 100 µM (inactive); in assay [16], > 100 µM (inactive); in assay [17], 50 µM (inactive).
Turning to `COC(=O)c1ccccc1/C=C1\Cc2c(C)cc(C)cc2C1=O`, the GI50 in assay [1], in assay [2], in [3], in assay [4], in assay [5] and in [18] was > 100 µM (inactive) in each case. Besides, the GI50 in assay [6], in assay [7], in assay [9], in [10], in [11] and in [12] was > 100 µM (inactive) throughout. The GI50 in assay [13], in [14], in assay [15], in [19], in assay [16] and in assay [17] was > 100 µM (inactive) throughout.
`Cc1c2ccccc2cc2nc3ccccc3n12`: the GI50 in assay [1] is > 10 µM (inactive); in assay [2], > 10 µM (inactive); in assay [3], > 10 µM (inactive); in assay [4], > 10 µM (inactive); in assay [5] it was 0.00668 µM (active); in assay [18], > 10 µM (inactive). The GI50 in assay [6], in assay [7], in assay [8], in assay [9], in assay [10] and in [11] was > 10 µM (inactive) throughout. For the same compound, the GI50 in [12], in assay [13], in assay [15], in assay [19], in assay [16] and in [17] was > 10 µM (inactive) in each case.
Consider `COc1ccc(C(=O)c2[nH]c(Nc3ccc(Cl)cc3)c(C(=S)Nc3ccccc3)c2N)cc1`, for which the GI50 in assay [1] is > 100 µM (inactive); in [2] it was > 100 µM (inactive); in assay [3], 70.5 µM (inactive); in assay [4], > 100 µM (inactive); in [5], > 100 µM (inactive); in assay [18], 24.8 µM (inactive). For the same compound, the GI50 is > 100 µM (inactive) in assay [6]; > 100 µM (inactive) in assay [7]; > 100 µM (inactive) in assay [8]; 47 µM (inactive) in assay [10]; > 100 µM (inactive) in [11]; > 100 µM (inactive) in assay [12]. In addition, the GI50 in assay [13] was > 100 µM (inactive); in assay [14], > 100 µM (inactive); in [15], > 100 µM (inactive); in [19], 22.8 µM (inactive); in assay [16] it was > 100 µM (inactive); in [17], > 100 µM (inactive).
Take `CC12CC(c3ccccc3O1)C(C(=O)Nc1nccs1)C(=O)N2` (configuration not stated): the GI50 in [2], in assay [3], in [5], in [18], in [6] and in assay [7] was > 100 µM (inactive) throughout. Moreover, the GI50 in assay [8] is > 100 µM (inactive); in assay [9], 98.4 µM (inactive); in assay [10], > 100 µM (inactive); in assay [11] it was > 100 µM (inactive); in [12], > 100 µM (inactive); in [13], > 100 µM (inactive). Besides, the GI50 in assay [14] is > 100 µM (inactive); in assay [15], > 100 µM (inactive); in assay [19], 40.5 µM (inactive); in assay [16], > 100 µM (inactive); in [17] it was > 100 µM (inactive).
On to `CCCCC1Cc2cc(O)ccc2-c2nc3cc(O)ccc3n21.CCCCC1Cc2cc(O)ccc2-c2nc3ccc(O)cc3n21` (configuration not stated), for which the GI50 is 16.5 µM (inactive) in assay [1]; 19.2 µM (inactive) in assay [2]; 19.2 µM (inactive) in assay [3]; 14.8 µM (inactive) in assay [4]; 18.6 µM (inactive) in assay [5]; 16.3 µM (inactive) in [18]. Further, the GI50 in assay [6] was 13 µM (inactive); in assay [7], 14.3 µM (inactive); in assay [8] it was 18.5 µM (inactive); in assay [9] it was 12.4 µM (inactive); in assay [10] it was 18.4 µM (inactive); in assay [11], 21.7 µM (inactive). In addition, the GI50 in assay [12] was 19.1 µM (inactive); in [13] it was 21.4 µM (inactive); in assay [14] it was 16.8 µM (inactive); in assay [15], 15.8 µM (inactive); in assay [16], 14.4 µM (inactive); in assay [17] it was 19.1 µM (inactive).
`CC(=S)N/C=C1/C(=O)C=C(C)OC1=O`: the GI50 in assay [1], in assay [2], in assay [3], in assay [4], in assay [5] and in assay [18] was > 100 µM (inactive) in each case. For the same compound, the GI50 in [6], in assay [7], in assay [8], in assay [9], in assay [10] and in [11] was > 100 µM (inactive) in each case. In addition, the GI50 in assay [12], in assay [13], in [14], in assay [15], in assay [16] and in [17] was > 100 µM (inactive) throughout.
For the compound `C=C(C)C1Cc2c(cc3c(c2O)c(=O)c2ccccc2n3C)O1` (configuration not stated), the GI50 is 2.27 µM (inactive) in assay [1]; 1.72 µM (inactive) in [2]; 2.94 µM (inactive) in assay [3]; 2.4 µM (inactive) in assay [4]; 13.9 µM (inactive) in assay [5]; 2.61 µM (inactive) in assay [18]. The GI50 in assay [6] was 1.87 µM (inactive); in assay [7] it was 3.2 µM (inactive); in [8], 4.97 µM (inactive); in assay [9] it was 2.06 µM (inactive); in assay [10], 2.41 µM (inactive); in assay [11], 12.6 µM (inactive). The GI50 is 2.77 µM (inactive) in assay [12]; 1.84 µM (inactive) in assay [13]; 15.8 µM (inactive) in assay [15]; 10.7 µM (inactive) in [19]; 9.12 µM (inactive) in assay [16]; 2.75 µM (inactive) in [17].
In the case of `C#CCSC(C=C=C)P(=O)(OC(C)C)OC(C)C` (configuration not stated), the GI50 was 32.4 µM (inactive) in assay [1]; 26.4 µM (inactive) in assay [2]; 33.7 µM (inactive) in [3]; 43.2 µM (inactive) in [5]; 33 µM (inactive) in assay [18]; 45.7 µM (inactive) in assay [6]. Besides, the GI50 was > 100 µM (inactive) in [7]; > 100 µM (inactive) in assay [8]; 30.3 µM (inactive) in assay [9]; > 100 µM (inactive) in [10]; > 100 µM (inactive) in [11]; 38.1 µM (inactive) in assay [12]. Besides, the GI50 in [13], in [14], in assay [15], in assay [19], in [16] and in [17] was > 100 µM (inactive) throughout.
